Reference: patent US12110503B2, “Method for differentiation of ocular cells and use thereof” (FUJIFILM Cellular Dynamics, Inc., priority 2018, dated 2024)

System: anterior neuroectoderm cells
Assay: Retinal differentiation with removal of the BMP inhibitor (RD1 then RD2)
Type: cell-based, human
Settings: RD1 with LDN193189 about 2 days, then RD2 without
Experimental: In some aspects, the cells may be first differentiated in the presence of a BMP inhibitor, such as LDN1913189, for a period of time before differentiation in the absence of a BMP inhibitor. First, the anterior neuroectoderm cells are cultured in RD1 comprising a BMP pathway inhibitor, such as LDN193189, for about 1-3 days, such as 2 days. […] The second step may be for about 5-10 days, such as about 7 days, to continue differentiating the anterior neuroectoderm cells. […] VSX2 is the earliest specific marker of neural RPC within the optic vesicle and cup (Rowan, et al., 2004). VSX2^+ retinal progenitors can give rise to all cell types of the neural retina: cones, rods, ganglion cells, amacrine cells, bipolar cells, horizontal cells and Muller glia.
The cells were then cultured in Retinal Differentiation Medium 1 (RD1) for about one to four days, particularly about two days. Briefly, the RD1 (Table 1) comprised DMEM and F12 at about a 1:1 ratio, knockout serum replacement, MEM NEAA, sodium pyruvate, N-2 supplement, B-27 supplement, and ascorbic acid. In addition, the RD1 comprised a WNT pathway inhibitor (e.g., CKI-7), a BMP pathway inhibitor (e.g., LDN193189), a TGFβ pathway inhibitor (e.g., SB431542), and a MEK inhibitor (e.g., PD325901), and IGF-1. […]

Cl.c1ccc2c(-c3cnn4cc(-c5ccc(N6CCNCC6)cc5)cnc34)ccnc2c1 [LDN193189, 4-(6-(4-(piperazin-1-yl)phenyl)pyrazolo[1,5-a]pyrimidin-3-yl)quinoline hydrochloride]
VSX2 expression after removal of the BMP inhibitor: increase expression of VSX2
